{"source": "paper PMC10381184", "about": "“Unprecedented Antimicrobial and Cytotoxic Polyketides from Cultures of Diaporthe africana sp. nov” (Journal of Fungi, 2023)", "origin": "cited, not measured here", "system": "MptpB", "conditions": "result in words; ref 63 (Cui et al.); cited from earlier work"}
{"smiles": "CC(C)=CCc1ccc(O)c2c1[C@H](c1cc(C)cc3c1O[C@H](C(C)(C)O)CO3)NC2=O", "note": "[diaporisoindole B]", "values": [{"measurement": "inhibitory activity against MptpB", "value": "failed to show any activity"}]}
